Data set [1] concerns the target T1, CYP2B6 (Homo sapiens, UniProt P20813).
T1 construct: expressed in transfected cells
T1 sequence (P20813 1-491): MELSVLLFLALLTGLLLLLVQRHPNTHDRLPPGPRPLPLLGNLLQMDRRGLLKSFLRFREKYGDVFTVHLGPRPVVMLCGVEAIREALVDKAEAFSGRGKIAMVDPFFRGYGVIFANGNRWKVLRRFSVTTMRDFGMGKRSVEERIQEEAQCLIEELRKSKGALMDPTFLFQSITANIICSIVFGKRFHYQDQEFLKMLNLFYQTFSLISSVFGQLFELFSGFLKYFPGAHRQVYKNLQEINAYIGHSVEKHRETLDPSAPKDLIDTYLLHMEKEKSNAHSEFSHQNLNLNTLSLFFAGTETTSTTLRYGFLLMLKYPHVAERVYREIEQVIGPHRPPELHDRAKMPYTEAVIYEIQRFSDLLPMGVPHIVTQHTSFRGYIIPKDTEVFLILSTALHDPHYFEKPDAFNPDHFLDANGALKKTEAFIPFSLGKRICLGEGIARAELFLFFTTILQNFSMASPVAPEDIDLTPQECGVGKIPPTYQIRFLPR
Description: Kinetic analysis, 7-ethoxycoumarin O-deethylase activity in Hepc/2B6.68. The class given is cell-based. How it is done: The reaction solution was diluted to 10-fold with 0.1M Tris-HCl (pH 7.4) and fluorescent intensity was measured at an excited wavelength of 390 nm and a fluorescence wavelength of 440 nm, using a spectrofluorometer (Hitatchi Spectrofluorometer F-2000) to quantify 7-hydroxycoumarin formed. The product purchased from Extrasynthese was used as the standard substance for 7-hydroxycoumarin.

Data set [2] has as its system CYP2E1-expressing cells (Hepc/2E1.3-8). The experiment in a line: LDH leakage test, acetaminophen in CYP2E1-expressing cells. The class given is cell-based, human. As to the method:
(§1) Two plates each with the same design as in the MTT assay were prepared (for determination of LDH activity in the culture supernatant and for determination of LDH activity in the culture supernatant+LDH activity in the cells). After incubating for 3 days in a CO2 incubator, 10 μl of the supernatant was taken from each well of one plate (for determination of LDH activity in the supernatant), transferred to another 96-well plate, and 40 μl of distilled water was further added. On the other hand, 10 μl of 10% Triton X100 (Wako Junyaku K. K. ) was added to each well of another plate (for determination of LDH activity in the culture supernatant+LDH activity in the cells), followed by shaking and incubation at 37° C. for 45 minutes. After centrifuging at 1500 rpm for 5 minutes, 10 μl of the supernatant was taken from each well, transferred to another 96-well plate, and 40 μl of distilled water was further added. The LDH activity of each well in these plates was measured using Cytotox 96 Non-Radioactive Cytotoxicity Assay Kit (Promega). Multiscanning MS-UV was used for the measurement of absorbance. A ratio of the LDH activity in the supernatant to (the LDH activity in the supernatant+ the LDH activity in the cells) was made an LDH leakage rate.

In data set [3] the test system is HepG2. The experiment in a line: MTT assay, cytotoxicity of acetaminophen in HepG2. In kind it is cell-based, human. The settings on record: HepG2, without BSO, 4 days incubation (FIG. 1). As to the method: (§2) HepG2 or CYP2E1-expressing cells (Hepc/2E1.3-8) (4×10^5 cells/ml) were incubated with acetaminophen (Wako Junyaku K. K. ) diluted to a given concentration in DMEM medium supplemented with 5% FCS in a CO2 incubator. In the test to terminate glutathione conjugation, L-Buthionine [S,R]-Sulfoximine (BSO, Sigma) was added to the medium in a final concentration of 100 μM. After incubation for 4 days, 20 μl of a solution of 3-(4,5-dimethyl-2-thiazolyl)-2,5-diphenyl-2H-tetrazolium bromide (MTT, Sigma) adjusted to 1 mg/ml with PBS (Flow) was added to each well followed by incubation at 37° C. for 3 hours. Next, 100 μl of 0.01N HCl solution containing 10% SDS was added to each well. After incubation at 37° C. overnight, absorbance was measured at 590 nm.

Data set [4] concerns CYP2E1-expressing cells (Hepc/2E1.3-8). The experiment in a line: MTT assay, cytotoxicity of acetaminophen in CYP2E1-expressing cells. In kind it is cell-based, human. Conditions: 4 days incubation (FIG. 1). As to the method:
as §2

Data set [5] concerns HepG2. Description: LDH leakage test, acetaminophen in HepG2. The class given is cell-based, human. How it is done:
as §1

The target of data set [6] is T2, CYP2A6 (Homo sapiens, UniProt P11509).
T2 construct: expressed in transfected cells
T2 sequence (P11509 1-494): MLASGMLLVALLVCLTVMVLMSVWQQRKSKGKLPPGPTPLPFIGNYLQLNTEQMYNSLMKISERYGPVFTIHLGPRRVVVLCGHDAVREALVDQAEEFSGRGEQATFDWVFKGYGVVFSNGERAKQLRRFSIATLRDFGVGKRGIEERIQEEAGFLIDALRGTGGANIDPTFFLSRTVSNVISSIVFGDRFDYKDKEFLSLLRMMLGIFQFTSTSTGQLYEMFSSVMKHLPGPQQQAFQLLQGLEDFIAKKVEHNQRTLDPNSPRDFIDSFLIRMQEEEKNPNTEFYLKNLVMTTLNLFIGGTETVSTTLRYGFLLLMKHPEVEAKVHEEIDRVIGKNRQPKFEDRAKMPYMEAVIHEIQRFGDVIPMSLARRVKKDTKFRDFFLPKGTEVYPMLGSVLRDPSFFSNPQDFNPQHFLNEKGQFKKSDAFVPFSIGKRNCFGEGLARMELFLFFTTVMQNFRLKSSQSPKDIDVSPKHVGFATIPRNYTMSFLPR
Description: Kinetic analysis, coumarin 7-hydroxylase activity in Hepc/2A6L.9. The class given is cell-based. An excerpt: The product purchased from Extrasynthese was used as the standard substance for 7-hydroxycoumarin.

Data set [7] relates to CYP2B6-expressing cells (Hepc/2B6.68). Conditions: Hepc/2B6.68, 4 days incubation; plateau above 2 mM.
Description: Two plates each with the same design as in the MTT assay were prepared (for determination of LDH activity in the culture supernatant and for determination of LDH activity in the culture supernatant+LDH activity in the cells). After incubating for 4 days in a CO2 incubator, 10 μl of the supernatant was taken from each well of one plate (for determination of LDH activity in the supernatant), transferred to another 96-well plate, and 40 μl of distilled water was further added. On the other hand, 10 μl of 10% Triton X100 was added to each well of another plate (for determination of LDH activity in the culture supernatant+LDH activity in the cells), followed by shaking and incubation at 37° C. for 45 minutes. After centrifuging at 1500 rpm for 5 minutes, 10 μl of the supernatant was taken from each well, transferred to another 96-well plate, and 40 μl of distilled water was further added. The LDH activity of each well in these plates was measured using Cytotox 96 Non-Radioactive Cytotoxicity Assay Kit (Promega). Multiscanning MS-UV was used for the measurement of absorbance. A ratio of the LDH activity in the supernatant to (the LDH activity in the supernatant + the LDH activity in the cells) was made an LDH leakage rate.
For data set [8] the test system is unchanged. Conditions: Hepc/2B6.68, 4 days incubation (printed FIG. 5).
Description: (§3) After incubation for 4 days, 20 μl of a MTT (Sigma) solution adjusted to 1 mg/ml with PBS (Flow) was added to each well followed by incubation at 37° C. for 3 hours. Next, 100 μl of 0.01N HCl solution containing 10% SDS was added to each well. After incubation at 37° C. overnight, absorbance was measured at 590 nm.
Data set [9] deals with HepG2. The settings on record: HepG2, 4 days incubation (printed FIG. 4).
Description: as §3
Two plates each with the same design as in the MTT assay were prepared (for determination of LDH activity in the culture supernatant and for determination of LDH activity in the culture supernatant+LDH activity in the cells). After incubating for 4 days in a CO2 incubator, 10 μl of the supernatant was taken from each well of one plate (for determination of LDH activity in the supernatant), transferred to another 96-well plate, and 40 μl of distilled water was further added. On the other hand, 10 μl of 10% Triton X100 was added to each well of another plate (for determination of LDH activity in the culture supernatant+LDH activity in the cells), followed by shaking and incubation at 37° C. for 45 minutes. After centrifuging at 1500 rpm for 5 minutes, 10 μl of the supernatant was taken from each well, transferred to another 96-well plate, and 40 μl of distilled water was further added. The LDH activity of each well in these plates was measured using Cytotox 96 Non-Radioactive Cytotoxicity Assay Kit (Promega). Multiscanning MS-UV was used for the measurement of absorbance. […]
In data set [10] the target is CYP2E1 (Homo sapiens, UniProt P05181). Conditions: Hepc/2E1.3-8 cells incubated 3 days with the substance; 500 μM p-nitrophenol (FIG. 7).
CYP2E1, sequence (P05181 whole entry): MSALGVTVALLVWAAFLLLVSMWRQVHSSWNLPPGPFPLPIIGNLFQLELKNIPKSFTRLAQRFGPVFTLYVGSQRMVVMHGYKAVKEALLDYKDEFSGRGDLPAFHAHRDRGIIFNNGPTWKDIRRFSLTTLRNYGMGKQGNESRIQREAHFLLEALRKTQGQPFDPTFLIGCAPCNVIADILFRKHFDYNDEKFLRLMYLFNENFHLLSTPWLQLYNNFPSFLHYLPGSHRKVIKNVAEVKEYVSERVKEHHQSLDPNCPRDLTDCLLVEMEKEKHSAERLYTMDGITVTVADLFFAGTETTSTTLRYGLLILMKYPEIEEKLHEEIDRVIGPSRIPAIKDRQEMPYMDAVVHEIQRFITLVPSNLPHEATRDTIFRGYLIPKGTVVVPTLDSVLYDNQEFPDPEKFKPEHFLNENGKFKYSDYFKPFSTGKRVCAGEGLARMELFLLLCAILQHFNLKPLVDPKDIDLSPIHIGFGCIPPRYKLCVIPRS
Description: The medium was suctioned and the cells attached to the plate were washed with Phenol Red-free DMEM medium. Subsequently, p-nitrophenol previously diluted to 500 μM was added in 500 μl/well. After reacting at 37° C., the reaction solution was recovered from each well. To 100 μl of the reaction solution 50 μl of NaOH (Wako Junyaku K. K. ) was added, and insoluble matters were removed by centrifugation. By measuring absorbance at 540 nm-620 nm with multi-scanning MS-UV (Labo Systems), 4-nitrocatechol formed was quantified.
In data set [11] the target is CYP3A4 (Homo sapiens, UniProt P08684). Description: Kinetic analysis, testosterone 6β-hydroxylase activity in Hepc/3A4.5. How it is done: Subsequently, testosterone previously diluted to 100 μM was added in 500 μl/well.
CYP3A4, sequence (P08684 whole entry): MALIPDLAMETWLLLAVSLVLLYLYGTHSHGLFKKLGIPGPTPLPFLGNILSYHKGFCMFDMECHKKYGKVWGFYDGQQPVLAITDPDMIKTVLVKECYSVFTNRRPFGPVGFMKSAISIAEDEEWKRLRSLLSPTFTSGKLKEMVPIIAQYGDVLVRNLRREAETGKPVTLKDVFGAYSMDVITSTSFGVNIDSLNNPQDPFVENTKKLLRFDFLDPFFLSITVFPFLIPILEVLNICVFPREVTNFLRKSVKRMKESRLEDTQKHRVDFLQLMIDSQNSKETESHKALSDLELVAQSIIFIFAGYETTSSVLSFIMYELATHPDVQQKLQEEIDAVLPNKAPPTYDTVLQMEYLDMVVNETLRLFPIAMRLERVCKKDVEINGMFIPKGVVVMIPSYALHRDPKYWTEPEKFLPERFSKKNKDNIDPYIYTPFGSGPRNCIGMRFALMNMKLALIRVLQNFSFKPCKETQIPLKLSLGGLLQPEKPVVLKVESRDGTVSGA
A program was made up to set for a linear gradient of 0-100% solution B in 0-20 minutes, 100% solution B in 20-30 minutes and since then 100% solution.

The subject of data set [12] is CYP1A1-expressing cells (Hepc/1A1.4). The experiment in a line: MTT assay, cytotoxicity of benzanthracene in CYP1A1-expressing cells. Conditions: Hepc/1A1.4 compared with HepG2, 4 days incubation, concentration-dependent (FIG. 3). In kind it is cell-based, human.
Description: CYP1A1-expressing cells (Hepc/1A1.4) (4×10^5 cells/ml) were incubated with benzanthracene (Sigma) diluted to a given concentration in DMEM medium supplemented with 5% FCS in a CO2 incubator. After incubation for 4 days, 20 μl of a MTT (Sigma) solution adjusted to 1 mg/ml with PBS (Flow) was added to each well followed by incubation at 37° C. for 3 hours. Next, 100 μl of 0.01N HCl solution containing 10% SDS was added to each well. After incubation at 37° C. overnight, absorbance was measured at 590 nm.

As to `CCOc1ccc2ccc(=O)oc2c1` [7-ethoxycoumarin], the Vmax in data set [1] (Lineweaver-Burk plot) is reported as 80 pmol/min/mg. For the same compound, in data set [1] (human, Hepc/2B6.68 cells expressing CYP2B6, Lineweaver-Burk plot), the Km came out at 81 µM.

`CC(=O)Nc1ccc(O)cc1` [Acetaminophen, acetaminophen]: in data set [2] (Hepc/2E1.3-8 + 100 μM BSO (glutathione exhausted), versus without BSO), the “enhancement of sensitivity to acetaminophen in the presence of BSO (LDH leakage)” value is given as “approximately 4 times”. The “leakage of LDH” value in [2] (Hepc/2E1.3-8, without BSO, 3 days incubation (FIG. 2)) is on record as “slight leakage of LDH”; in [5] (HepG2, without BSO, 3 days incubation (FIG. 2)) it was “slight leakage of LDH”. Also, the MTT activity result was “slight decrease of the MTT activity” in data set [3] and “slight decrease of the MTT activity” in data set [4] (Hepc/2E1.3-8, without BSO). In addition, the “MTT activity in the presence of BSO” value in data set [4] (Hepc/2E1.3-8 + 100 μM BSO) was “increased sensitivity to acetaminophen”. Further, the “effect of the presence of BSO on LDH leakage” value in data set [5] (HepG2 + 100 μM BSO (FIG. 2)) was “Any effect expected in the presence of BSO was not noted”.

As for `O=c1ccc2ccccc2o1` [Coumarin], the Vmax in data set [6] (Lineweaver-Burk plot) is listed as 412 pmol/min/mg. The Km in data set [6] (human, Hepc/2A6L.9 cells expressing CYP2A6, Lineweaver-Burk plot) turned out to be 11.1 µM.

For the compound `O=P1(N(CCCl)CCCl)NCCCO1` (stereo not shown) [Cyclophosphamide, cyclophosphamide], the “leakage of LDH” value in data set [7] is recorded as “concentration-dependently in the concentration up to 2 mM”. Moreover, the MTT activity entry in data set [8] is “slight decrease of the MTT activity concentration-dependently”. The cytotoxicity result in [9] is recorded as “slightly cytotoxic”.

In the case of `C[S+](C)[O-]` [DMSO, dimethylsulfoxide], in [10], the “CYP2E1 activity induction (p-nitrophenol hydroxylation, 4-nitrocatechol formed)” value is given as “the enzyme activity increases”.

For `C[C@]12CC[C@H]3[C@@H](CCC4=CC(=O)CC[C@@]43C)[C@@H]1CC[C@@H]2O` [Testosterone], in data set [11] (Hepc/3A4.5, testosterone 6β-hydroxylase activity, Lineweaver-Burk plot), the Vmax is 71 pmol/min/mg. Also, the Km in data set [11] (human, Hepc/3A4.5 cells expressing CYP3A4) was 96 µM.

In the case of `c1ccc2cc3c(ccc4ccccc43)cc2c1` [benzanthracene], the “reduction in the MTT activity” value in data set [12] was “more potent reduction in the MTT activity”.

Regarding `CCO` [ethanol], the “CYP2E1 activity induction (p-nitrophenol hydroxylation, 4-nitrocatechol formed)” value in data set [10] is recorded as “the enzyme activity increases”.

Source of the values: patent US6756229B1, “Human cell line showing stable expression of cytochromes P450” (Takeda Chemical Industries, Ltd., priority 1999, dated 2004).
